According to patent publication US12077503B2, “Substituted cyclic amides and their use as herbicides” (FMC CORPORATION, priority 2015, dated 2024):

Legend:
Type in all cases: in vivo
[1] = tested on: giant foxtail (Setaria faberii); test: Test A postemergence; settings: Setaria faberi, post-emergence, 240 h, postemergence
How it was run: (§1)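 Greenhouse, ~10 d after spray; visual injury vs untreated controls, 0 = no effect, 100 = complete control. Preemergence: directed soil spray over planted seeds. Postemergence: plants 2–10 cm, 1–2 leaf stage. Loam/sand blend. Compound in non-phytotoxic solvent with surfactant.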

[2] = tested on: Galium (catchweed bedstraw, Galium aparine); test: Test A postemergence; settings: Galium, post-emergence, 240 h, postemergence
How it was run: as §1

[3] = tested on: ragweed (common ragweed, Ambrosia elatior); test: Test A postemergence; settings: Ambrosia artemisiifolia, post-emergence, 240 h, postemergence
How it was run: as §1

[4] = tested on: pigweed (Amaranthus retroflexus); test: Test A postemergence; settings: Amaranthus retroflexus, post-emergence, 240 h, postemergence
How it was run: as §1

[5] = tested on: ryegrass, Italian (Italian ryegrass, Lolium multiflorum); test: Test A postemergence; settings: Lolium multiflorum, post-emergence, 240 h, postemergence
How it was run: as §1

[6] = tested on: wheat (Triticum aestivum); test: Test A postemergence; settings: Triticum aestivum, post-emergence, 240 h, postemergence
How it was run: as §1

[7] = tested on: corn (Zea mays); test: Test A postemergence; settings: Zea mays, post-emergence, 240 h, postemergence
How it was run: as §1

[8] = tested on: barnyardgrass (Echinochloa crus-galli); test: Test A postemergence; settings: Echinochloa crus-galli, post-emergence, 240 h, postemergence
How it was run: as §1

[9] = tested on: Kochia (Kochia scoparia); test: Test A postemergence; settings: Bassia scoparia, post-emergence, 240 h, postemergence
How it was run: as §1

[10] = tested on: giant foxtail (Setaria faberii); test: Test A preemergence; settings: Setaria faberi, pre-emergence, 240 h, preemergence, 0 to 100 scale where 0 is no effect and 100 is complete control, read-out: Foxtail, Giant plant response rating
How it was run: as §1

[11] = tested on: ragweed (common ragweed, Ambrosia elatior); test: Test A preemergence; settings: Ambrosia artemisiifolia, pre-emergence, 240 h, preemergence, 0 to 100 scale where 0 is no effect and 100 is complete control, read-out: Ragweed plant response rating
How it was run: as §1

[12] = tested on: pigweed (Amaranthus retroflexus); test: Test A preemergence; settings: Amaranthus retroflexus, pre-emergence, 240 h, preemergence, 0 to 100 scale where 0 is no effect and 100 is complete control, read-out: Pigweed plant response rating
[13] = tested on: ryegrass, Italian (Italian ryegrass, Lolium multiflorum); test: Test A preemergence; settings: Lolium multiflorum, pre-emergence, 240 h, preemergence, 0 to 100 scale where 0 is no effect and 100 is complete control, read-out: Ryegrass, Italian plant response rating
How it was run: as §1

[14] = tested on: barnyardgrass (Echinochloa crus-galli); test: Test A preemergence; settings: Echinochloa crus-galli, pre-emergence, 240 h, preemergence, 0 to 100 scale where 0 is no effect and 100 is complete control, read-out: Barnyardgrass plant response rating
How it was run: as §1

[15] = tested on: Kochia (Kochia scoparia); test: Test A preemergence; settings: Bassia scoparia, pre-emergence, 240 h, preemergence, 0 to 100 scale where 0 is no effect and 100 is complete control, read-out: Kochia plant response rating
How it was run: as §1

Work on `CCc1ccc([C@H]2CNC(=O)[C@@H]2C(=O)Nc2cccc(F)c2C)cc1` [Compound 1177] yielded a pest or weed control at 125 g/ha ([1]; 125 g ai/ha, visual injury vs untreated controls after approx. 10 d, 0 = no effect, 100 = complete control, read-out: Foxtail, Giant plant response rating (0 to 100 scale)) of 50%, a pest or weed control at 500 g/ha ([1]; 500 g ai/ha, 0 to 100 scale, 0 is no effect, 100 is complete control, read-out: Foxtail, Giant plant response rating) of 70% and a pest or weed control at 125 g/ha ([2]; 125 g ai/ha, visual injury vs untreated controls after approx. 10 d, 0 = no effect, 100 = complete control, read-out: Galium plant response rating (0 to 100 scale)) of 20%. The pest or weed control at 500 g/ha ([2]; 500 g ai/ha, 0 to 100 scale, 0 is no effect, 100 is complete control, read-out: Galium plant response rating) was 50%, the pest or weed control at 125 g/ha ([3]; 125 g ai/ha, visual injury vs untreated controls after approx. 10 d, 0 = no effect, 100 = complete control, read-out: Ragweed plant response rating (0 to 100 scale)) was 0% and the pest or weed control at 500 g/ha ([3]; 500 g ai/ha, 0 to 100 scale, 0 is no effect, 100 is complete control, read-out: Ragweed plant response rating) was 0%. It also gave a pest or weed control at 125 g/ha ([4]; 125 g ai/ha, visual injury vs untreated controls after approx. 10 d, 0 = no effect, 100 = complete control, read-out: Pigweed plant response rating (0 to 100 scale)) of 0%, a pest or weed control at 500 g/ha ([4]; 500 g ai/ha, 0 to 100 scale, 0 is no effect, 100 is complete control, read-out: Pigweed plant response rating) of 0% and a pest or weed control at 125 g/ha ([5]; 125 g ai/ha, visual injury vs untreated controls after approx. 10 d, 0 = no effect, 100 = complete control, read-out: Ryegrass, Italian plant response rating (0 to 100 scale)) of 40%. For the same compound, the pest or weed control at 500 g/ha ([5]; 500 g ai/ha, 0 to 100 scale, 0 is no effect, 100 is complete control, read-out: Ryegrass, Italian plant response rating) was 40%, the plant injury at 125 g/ha ([6]; 125 g ai/ha, visual injury vs untreated controls after approx. 10 d, 0 = no effect, 100 = complete control, read-out: Wheat plant response rating (0 to 100 scale)) was 20% and the plant injury at 500 g/ha ([6]; 500 g ai/ha, 0 to 100 scale, 0 is no effect, 100 is complete control, read-out: Wheat plant response rating) was 30%. It also gave a plant injury at 125 g/ha ([7]; 125 g ai/ha, visual injury vs untreated controls after approx. 10 d, 0 = no effect, 100 = complete control, read-out: Corn plant response rating (0 to 100 scale)) of 20%, a plant injury at 500 g/ha ([7]; 500 g ai/ha, 0 to 100 scale, 0 is no effect, 100 is complete control, read-out: Corn plant response rating) of 40% and a pest or weed control at 125 g/ha ([8]; 125 g ai/ha, visual injury vs untreated controls after approx. 10 d, 0 = no effect, 100 = complete control, read-out: Barnyardgrass plant response rating (0 to 100 scale)) of 70%. It also gave a pest or weed control at 500 g/ha ([8]; 500 g ai/ha, 0 to 100 scale, 0 is no effect, 100 is complete control, read-out: Barnyardgrass plant response rating) of 90%, a pest or weed control at 125 g/ha ([9]; 125 g ai/ha, visual injury vs untreated controls after approx. 10 d, 0 = no effect, 100 = complete control, read-out: Kochia plant response rating (0 to 100 scale)) of 0% and a pest or weed control at 500 g/ha ([9]; 500 g ai/ha, 0 to 100 scale, 0 is no effect, 100 is complete control, read-out: Kochia plant response rating) of 0%. For the same compound, the pest or weed control at 125 g/ha ([10]; 125 g ai/ha, approx. 10 d) was 70%, the pest or weed control at 500 g/ha ([10]; 500 g ai/ha) was 100% and the pest or weed control at 125 g/ha ([11]; 125 g ai/ha, approx. 10 d) was 0%. It also gave a pest or weed control at 500 g/ha ([11]; 500 g ai/ha) of 30%, a pest or weed control at 125 g/ha ([12]; 125 g ai/ha, approx. 10 d) of 0% and a pest or weed control at 500 g/ha ([12]; 500 g ai/ha) of 20%. For the same compound, the pest or weed control at 125 g/ha ([13]; 125 g ai/ha, approx. 10 d) was 30%, the pest or weed control at 500 g/ha ([13]; 500 g ai/ha) was 70% and the pest or weed control at 125 g/ha ([14]; 125 g ai/ha, approx. 10 d) was 70%. It also gave a pest or weed control at 500 g/ha ([14]; 500 g ai/ha) of 100%, a pest or weed control at 125 g/ha ([15]; 125 g ai/ha, approx. 10 d) of 30% and a pest or weed control at 500 g/ha ([15]; 500 g ai/ha) of 30%.
